Here are results for 5 compounds from publication PMC2788236 (The Journal of infectious diseases, 2009).

The test system of experiment [1] is western equine encephalitis virus replicon. The experiment is described as follows: microbe, parasite or virus in culture. Format: cell-based.
For experiment [2], the system named is Fort Morgan virus (FMV). Type of experiment: cell-based.
Experiment [3] deals with Fort Morgan virus (FMV).
In experiment [4] the test system is Fort Morgan virus (FMV). The experiment is described as follows: microbe, parasite or virus in culture. To be noted: BE(2)-C, 48 h, read-out: cell viability of FMV-infected cells.
The test system of another experiment is Sindbis virus (SINV). Briefly: microbe, parasite or virus in culture. To be noted: BE(2)-C, 48 h, read-out: cell viability of SINV-infected cells.

pIC50: −log10 of the molar value.

`NC(=O)c1ncn([C@@H]2O[C@H](CO)[C@@H](O)[C@H]2O)n1` [ribavirin]: in experiment [1], the “selectivity index (CC50/IC50 ratio)” value is on record as 19 and the “suppression of fLUC expression” value was ~ 80%. Also, the pIC50 in experiment [1] (Western equine encephalitis virus, BSR-T7/5, read-out: IC50, inhibition of fLUC activity) is 4.80.

Turning to `O=C(NCc1ccco1)C1CCN(C(=O)c2cc3sccc3n2Cc2ccc(Cl)cc2)CC1` [CCG32095], in experiment [1], the “IC50, dose-response analysis (SAR, figure 4)” value is given as “submicromolar”.

Turning to `O=C(NCc1ccco1)C1CCN(C(=O)c2cc3sccc3n2Cc2ccc(F)cc2)CC1` [CCG32091, 1-({4-[(4-fluorophenyl)methyl]-4H-thieno[3,2-b]pyrrol-5-yl}-carbonyl)-N-(furan-2-ylmethyl)piperidine-4-carboxamide], in experiment [1], the “selectivity index (CC50/IC50 ratio)” value is reported as > 20. The “suppression of infectious FMV production” value in the experiment on Fort Morgan virus (FMV) [2] is recorded as > 90%. Also, in the experiment with Fort Morgan virus (FMV) [3], the “concentration effectively suppressing FMV-induced cytopathic effect (as low as)” value was ≤ 3 µmol/L. Further, the viability at 12.5 µM came to 70% with Fort Morgan virus (FMV) [4] and 50% in the experiment with Sindbis virus (SINV).

Consider `COc1c(C)c2c(c(O)c1C/C=C(\C)CCC(=O)O)C(=O)OC2` [mycophenolic acid], for which the “suppression of fLUC expression” value in experiment [1] was ~ 80%.

As for `O=C(NCc1ccccc1)C1CCN(C(=O)c2cc3sccc3n2Cc2ccc(F)cc2)CC1` [CCG32088], the “IC50, dose-response analysis (SAR, figure 4)” value in experiment [1] is on record as “submicromolar”.
